Test results taken from ChEMBL document CHEMBL4184110 (Bioorg Med Chem Lett, 2018).

Assays:
[1] = biological target: T1, Thyroid hormone receptor beta (Homo sapiens, UniProt P10828); test: Antagonist activity at CMV-fused TRbeta-LBD-GAL4-DBD (unknown origin) expressed in HEK293T cells assessed as inhibition of T3-induced receptor transactivation after 16 hrs by bright-Glo luciferase reporter gene assay; assay type: cell-based
T1 sequence (P10828 whole entry): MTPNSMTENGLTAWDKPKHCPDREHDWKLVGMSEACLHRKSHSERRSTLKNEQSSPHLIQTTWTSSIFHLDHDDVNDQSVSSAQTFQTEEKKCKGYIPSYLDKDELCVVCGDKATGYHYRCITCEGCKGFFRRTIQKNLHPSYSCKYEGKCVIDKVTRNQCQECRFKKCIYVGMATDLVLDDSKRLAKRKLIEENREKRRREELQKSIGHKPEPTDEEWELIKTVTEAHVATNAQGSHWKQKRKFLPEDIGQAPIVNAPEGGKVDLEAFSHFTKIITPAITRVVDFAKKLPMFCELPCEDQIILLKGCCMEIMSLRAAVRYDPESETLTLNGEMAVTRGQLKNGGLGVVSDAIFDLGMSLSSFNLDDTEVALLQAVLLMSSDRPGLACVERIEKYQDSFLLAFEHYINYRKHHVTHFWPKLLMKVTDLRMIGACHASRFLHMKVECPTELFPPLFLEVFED

[2] = biological target: T2, Vitamin D3 receptor (Homo sapiens, UniProt P11473); test: Agonist activity at VDR-LBD (unknown origin) assessed as recruitment of alexa fluor 647-labeled SRC2-3 after 30 mins by fluorescence polarization assay
T2 sequence (P11473 whole entry): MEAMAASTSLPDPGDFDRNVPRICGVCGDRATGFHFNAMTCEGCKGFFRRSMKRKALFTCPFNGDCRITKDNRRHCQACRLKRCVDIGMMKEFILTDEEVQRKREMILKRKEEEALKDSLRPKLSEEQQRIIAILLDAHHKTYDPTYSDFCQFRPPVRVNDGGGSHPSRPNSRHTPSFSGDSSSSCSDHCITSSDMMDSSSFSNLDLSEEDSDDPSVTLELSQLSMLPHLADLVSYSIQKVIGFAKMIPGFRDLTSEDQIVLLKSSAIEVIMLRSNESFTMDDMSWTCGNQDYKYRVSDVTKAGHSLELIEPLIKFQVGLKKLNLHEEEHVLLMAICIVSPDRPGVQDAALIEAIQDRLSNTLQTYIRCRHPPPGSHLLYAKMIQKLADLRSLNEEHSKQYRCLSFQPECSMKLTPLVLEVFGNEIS

[3] = biological target: T3, Peroxisome proliferator-activated receptor delta (Homo sapiens, UniProt Q03181); test: Transactivation of CMV-fused PPARdelta-LBD-GAL4-DBD (unknown origin) expressed in HEK293T cells by luciferase reporter gene assay; assay type: cell-based
T3 sequence (Q03181 whole entry): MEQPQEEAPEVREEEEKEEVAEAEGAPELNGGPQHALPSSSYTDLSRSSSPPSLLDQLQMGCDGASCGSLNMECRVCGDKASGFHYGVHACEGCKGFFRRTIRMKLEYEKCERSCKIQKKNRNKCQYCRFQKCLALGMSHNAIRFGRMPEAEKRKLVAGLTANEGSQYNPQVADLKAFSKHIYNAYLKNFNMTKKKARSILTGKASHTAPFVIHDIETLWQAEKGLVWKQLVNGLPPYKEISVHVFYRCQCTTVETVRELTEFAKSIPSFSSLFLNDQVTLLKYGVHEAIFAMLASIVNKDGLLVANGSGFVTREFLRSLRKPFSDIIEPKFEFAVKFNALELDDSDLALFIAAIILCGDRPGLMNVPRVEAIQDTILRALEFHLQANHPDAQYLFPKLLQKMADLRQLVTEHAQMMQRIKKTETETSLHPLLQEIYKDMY

[4] = test system: HEK-293T; test: Cytotoxicity against HEK293T cells assessed as decrease in cell viability at 100 uM after 18 hrs by Cell Titer-Glo based luminescence assay relative to control; settings: human
[5] = biological target: Estrogen receptor beta (Homo sapiens, UniProt Q92731); test: Antagonist activity at CMV-fused ERbeta-LBD-GAL4-DBD (unknown origin) expressed in HEK293T cells assessed as inhibition of estradiol-induced receptor transactivation after 16 hrs by bright-Glo luciferase reporter gene assay; assay type: cell-based
Sequence of Estrogen receptor beta (Q92731 whole entry, the tested form may be a part): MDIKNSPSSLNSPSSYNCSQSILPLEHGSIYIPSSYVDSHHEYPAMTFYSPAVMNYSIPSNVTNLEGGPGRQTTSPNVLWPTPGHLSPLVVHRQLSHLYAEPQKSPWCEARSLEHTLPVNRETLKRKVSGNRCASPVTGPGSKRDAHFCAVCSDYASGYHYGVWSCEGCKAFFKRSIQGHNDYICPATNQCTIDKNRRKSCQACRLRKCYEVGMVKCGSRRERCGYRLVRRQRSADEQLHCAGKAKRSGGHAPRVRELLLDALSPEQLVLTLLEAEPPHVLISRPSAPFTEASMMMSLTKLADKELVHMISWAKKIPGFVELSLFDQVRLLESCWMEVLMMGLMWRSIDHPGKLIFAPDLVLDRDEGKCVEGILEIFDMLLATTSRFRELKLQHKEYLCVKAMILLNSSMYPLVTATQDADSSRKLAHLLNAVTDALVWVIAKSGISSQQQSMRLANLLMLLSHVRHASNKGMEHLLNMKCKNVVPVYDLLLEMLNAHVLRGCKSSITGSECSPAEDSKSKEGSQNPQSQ

[6] = biological target: T4, Thyroid hormone receptor alpha (Homo sapiens, UniProt P10827); test: Antagonist activity at CMV-fused TRalpha-LBD-GAL4-DBD (unknown origin) expressed in HEK293T cells assessed as inhibition of T3-induced receptor transactivation after 16 hrs by bright-Glo luciferase reporter gene assay; assay type: cell-based
T4 sequence (P10827 whole entry): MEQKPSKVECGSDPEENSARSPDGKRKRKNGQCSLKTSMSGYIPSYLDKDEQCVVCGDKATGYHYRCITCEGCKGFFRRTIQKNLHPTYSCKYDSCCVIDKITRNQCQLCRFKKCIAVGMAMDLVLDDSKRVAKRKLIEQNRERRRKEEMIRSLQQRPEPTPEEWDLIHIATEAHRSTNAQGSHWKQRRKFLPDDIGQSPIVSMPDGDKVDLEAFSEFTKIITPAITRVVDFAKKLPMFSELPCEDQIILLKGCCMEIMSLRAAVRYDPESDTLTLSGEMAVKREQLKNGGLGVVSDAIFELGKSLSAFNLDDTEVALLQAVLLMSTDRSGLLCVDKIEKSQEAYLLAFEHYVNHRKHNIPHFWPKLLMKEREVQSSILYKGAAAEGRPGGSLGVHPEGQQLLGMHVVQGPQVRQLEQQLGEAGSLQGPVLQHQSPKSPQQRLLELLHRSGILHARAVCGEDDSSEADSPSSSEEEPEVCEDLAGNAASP

[7] = biological target: T2, Vitamin D3 receptor; test: Antagonist activity at CMV-fused VDR (unknown origin) expressed in HEK293T cells assessed as reduction in 24-hydroxylase promoter mediated transcriptional activity by luciferase reporter gene assay; assay type: cell-based; settings: read-out: IC50
[8] = biological target: T5, Retinoic acid receptor RXR-alpha (Homo sapiens, UniProt P19793); test: Antagonist activity at CMV-fused RXRalpha-LBD-GAL4-DBD (unknown origin) expressed in HEK293T cells assessed as inhibition of bexarotene-induced receptor transactivation after 16 hrs by bright-Glo luciferase reporter gene assay; assay type: cell-based
T5 sequence (P19793 whole entry): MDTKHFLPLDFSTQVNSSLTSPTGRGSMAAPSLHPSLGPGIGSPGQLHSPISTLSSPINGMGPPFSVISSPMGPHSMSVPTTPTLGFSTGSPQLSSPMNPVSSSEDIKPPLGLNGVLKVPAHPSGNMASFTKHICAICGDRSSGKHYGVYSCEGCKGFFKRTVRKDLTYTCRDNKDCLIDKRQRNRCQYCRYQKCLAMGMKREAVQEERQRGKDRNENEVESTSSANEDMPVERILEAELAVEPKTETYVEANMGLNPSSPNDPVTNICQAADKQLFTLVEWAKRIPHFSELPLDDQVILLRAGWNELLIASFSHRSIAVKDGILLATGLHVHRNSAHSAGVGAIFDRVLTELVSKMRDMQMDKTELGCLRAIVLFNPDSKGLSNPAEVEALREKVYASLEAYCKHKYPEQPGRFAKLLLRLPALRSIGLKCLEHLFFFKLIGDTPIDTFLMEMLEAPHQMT

Row | IC50 [1] | EC50 [2] | EC50 [3] | IC50 [5] | IC50 [6] | IC50 [7] | IC50 [8] | Compound | Activity [4]
1 | 0.97 µM | Not Active | Not Active | 7.4 µM | 4.2 µM | 0.66 µM | 2 µM | COC(=O)Cc1ccc(OCc2oc(-c3cccc(OC)c3)nc2C)cc1 | 63.4%
2 | 9.8 µM | Not Active | Not Active | 23.6 µM | 10.1 µM | 2.5 µM | 11.1 µM | COC(=O)c1cccc(OCc2oc(-c3ccccc3OC)nc2C)c1 | 39.5%
3 | 7.6 µM | Not Active | Not Active | 10 µM | 8.4 µM | 3.82 µM | 4.4 µM | COC(=O)Cc1ccc(OCc2oc(-c3ccccc3OC)nc2C)cc1 | 31.2%
4 | 8.8 µM | Not Active | Not Active | 5.9 µM | 5.4 µM | 5.67 µM | 4.6 µM | COC(=O)c1ccc(OCc2oc(-c3cccc(OC)c3)nc2C)cc1 | 35.6%
